Results reported in PMC9101642 (Molecules, 2022).
Like-named read-outs stand apart in the source and are kept apart here. Marks after values point to notes of the source that are not given here.

Legend:
[1] = system: Ishikawa endometrial adenocarcinoma cells; test: Antiproliferative assay; assay type: cell-based; details: Homo sapiens, growth inhibition
Text: As SERMs profile is often associated with the stimulation of endometrial cell proliferation and an increase in the incidence of endometrial cancer (EC), the herein compounds were therefore evaluated against Ishikawa endometrial adenocarcinoma cells (Table 8, Supplementary Material Figures […]). […] However, future experimental elaboration, currently beyond the authors' experimental facilities, is required to confirm compounds' promising profiles in terms of no EC induction.

MDA-MB-231 cell lines = test: MTT antiproliferative assay; assay type: cell-based, human; details: Homo sapiens, MDA-MB-231; growth inhibition, 48 h; read-out: MDA-MB-231 (IC50 nM)
[2] = MTT antiproliferative assay (neutral control); details: human
MCF-7 cell lines = test: MTT antiproliferative assay; assay type: cell-based, human; details: for IC50: Homo sapiens, MCF7, growth inhibition, 48 h, read-out: MCF-7 (IC50 nM); for SI: selectivity index [IC50(MDA-MB-231)]/[IC50(MCF-7)]; for MCF-7 antiproliferative potency, fold higher than Ral: ratio of IC50 values
ERα [3] = biological target: T1, ERα (Homo sapiens, UniProt P03372); test: ERα down-regulation immunofluorescence assay in MCF-7; assay type: cell-based
T1 sequence (P03372 1-595): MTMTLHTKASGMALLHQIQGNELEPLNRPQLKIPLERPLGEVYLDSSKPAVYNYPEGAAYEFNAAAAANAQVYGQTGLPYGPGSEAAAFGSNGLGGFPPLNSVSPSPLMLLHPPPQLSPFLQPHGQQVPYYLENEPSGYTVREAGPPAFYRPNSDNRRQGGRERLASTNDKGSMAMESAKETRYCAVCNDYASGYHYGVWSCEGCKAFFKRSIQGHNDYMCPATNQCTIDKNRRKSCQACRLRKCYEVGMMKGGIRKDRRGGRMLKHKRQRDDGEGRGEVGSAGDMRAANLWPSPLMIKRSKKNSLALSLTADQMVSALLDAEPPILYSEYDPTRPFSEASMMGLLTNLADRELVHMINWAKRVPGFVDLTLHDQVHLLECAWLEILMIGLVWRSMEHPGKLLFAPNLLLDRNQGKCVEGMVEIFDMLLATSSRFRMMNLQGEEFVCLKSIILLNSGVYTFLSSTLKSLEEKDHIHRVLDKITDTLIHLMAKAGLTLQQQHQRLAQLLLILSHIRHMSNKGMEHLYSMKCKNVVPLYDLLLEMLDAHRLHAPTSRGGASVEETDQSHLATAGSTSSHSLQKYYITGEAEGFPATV

MCF-7 cells = test: Cell cycle distribution by flow cytometry; assay type: cell-based, human; details: 24 h
[4] = system: progesterone receptor (PR); test: ERα functional antagonism cell assay (PR as biomarker) in MCF-7; assay type: cell-based; details: Homo sapiens, MCF7; progesterone receptor as biomarker for ERα antagonism in MCF-7
ERβ = ERβ (Homo sapiens, UniProt Q92731); test: Fluorescence polarization competition assay: antagonistic potency and relative binding affinity; details: for logRBA ERβ: log of % relative binding affinity, estradiol = 100%
ERα [5] = biological target: T1, ERα; test: as above; details: for logRBA ERα: log of % relative binding affinity, estradiol = 100%; for ERα potency, fold more potent than 4-OHT / ERα potency, fold higher than Ral: ratio of IC50 values
[6] = ERα downregulation measured in MCF-7, read-out: MCF-7 DR (IC50 nM)
[7] = 1 nM as lower concentration (3DPQ-5, 3DPQ-6, 3DPQ-8)
[8] = calculated antagonistic (inhibitory) constant, read-out: Ka ERβ
[9] = concentration that antagonizes 50% of ERβ signaling activity, read-out: ERβ (IC50 nM)
[10] = calculated antagonistic (inhibitory) constant, read-out: Ka ERα
[11] = concentration that antagonizes 50% of ERα signaling activity, read-out: ERα (IC50 nM)
[12] = calculated antagonistic (inhibitory) constant

Chain of ERβ (Q92731 whole entry): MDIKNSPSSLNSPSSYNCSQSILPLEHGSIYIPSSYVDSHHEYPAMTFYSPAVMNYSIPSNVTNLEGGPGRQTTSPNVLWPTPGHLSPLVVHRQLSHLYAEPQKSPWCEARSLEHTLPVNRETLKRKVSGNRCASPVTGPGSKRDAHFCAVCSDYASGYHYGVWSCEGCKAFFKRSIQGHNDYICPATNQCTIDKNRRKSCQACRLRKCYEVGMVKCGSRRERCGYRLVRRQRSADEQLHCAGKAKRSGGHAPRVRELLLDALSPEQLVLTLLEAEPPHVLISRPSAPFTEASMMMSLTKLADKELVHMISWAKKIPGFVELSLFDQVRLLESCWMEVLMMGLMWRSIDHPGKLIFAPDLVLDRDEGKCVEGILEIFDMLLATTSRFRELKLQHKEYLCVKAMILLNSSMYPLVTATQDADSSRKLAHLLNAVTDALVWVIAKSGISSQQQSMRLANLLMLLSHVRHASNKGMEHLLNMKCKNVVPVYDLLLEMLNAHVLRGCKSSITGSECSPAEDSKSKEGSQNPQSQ

SMILES | IC50 [1] | IC50 (MDA-MB-231 cell lines) | IC50 at 48 h [2] | IC50 (MCF-7 cell lines) | SI (MCF-7 cell lines) | IC50 (ERα [3]; [6]) | Cell Cycle (%) G0/G1 (MCF-7 cells; [7]) | Cell Cycle (%) G2/M (MCF-7 cells; [7]) | Cell Cycle (%) S (MCF-7 cells; [7]) | Cell Cycle (%) G0/G1 (MCF-7 cells; 10 nM (3DPQ-5, 3DPQ-6, 3DPQ-8)) | Cell Cycle (%) G2/M (MCF-7 cells; 10 nM (3DPQ-5, 3DPQ-6, 3DPQ-8)) | Cell Cycle (%) S (MCF-7 cells; 10 nM (3DPQ-5, 3DPQ-6, 3DPQ-8)) | IC50 [4] | IC50 (ERβ; [9]) | logRBA ERβ (ERβ) | IC50 (ERα [5]; [11]) | logRBA ERα (ERα [5]) | ERα potency, fold more potent than 4-OHT (ERα [5]) | IC50 (ERα [3]) | IC50 (ERβ) | also measured
CC(=O)c1cc(C(=O)OC2C=CC(=O)OC(O)CCCC=CC3CC(O)CC32)ccc1OCCN1C(=O)CCC1=O (centres unmarked) [Compound 3DPQ-5, -decahydro-1H-cyclopenta[f][1]oxacyclotridecin-1-yl 3-acetyl-4-(2-(2,5-dioxopyrrolidin-1-yl)ethoxy)benzoate] | 1.42 ± 0.32 nM | 52.6 ± 0.69 nM | > 0.1 µM | 1.02 ± 0.64 nM | 51.61 ^‡,§ | > 100 nM | 71.78 ± 0.67 *^,†,‡,§ % | 19.01 ± 3.55 *^,†,‡,§ % | 9.21 ± 1.95 *^,†,‡,§ % | 74.24 ± 2.15 *^,†,‡,§ % | 15.85 ± 4.43 *^,†,‡,§ % | 9.92 ± 0.76 *^,†,‡,§ % | > 100 nM | 74.41 ± 0.46 nM | 0.08 ^†,‡,§ | 0.81 ± 0.43 nM | 2.04 ^‡ | 1.38 fold |  |  | Ki (ERβ; [8]): 0.0418 µM; Ki (ERα [5]; [10]): 0.00018 µM
CC(=O)c1cc(C(=O)O[C@@H]2/C=C/C(=O)O[C@@H](O)CCC/C=C/[C@@H]3C[C@H](O)C[C@H]32)ccc1OCCN1Cc2cccnc2C1 [Compound 3DPQ-6, (1R,2E,6R,10E,11aS,13S,14aR)-6,13-dihydroxy-4-oxo-4,6,7,8,9,11a,12,13,14,14a-decahydro-1H-cyclopenta[f][1]oxacyclotridecin-1-yl 4-(2-(5H-pyrrolo[3,4-b]pyridin-6(7H)-yl)ethoxy)-3-acetylbenzoate] | 1.46 ± 0.43 nM | 52.31 ± 0.46 nM | > 0.1 µM | 1.14 ± 0.49 nM | 45.89 ^‡,§ |  | 70.52 ± 1.53 *^,†,‡,§ % | 16.21 ± 3.25 *^,†,‡,§ % | 13.27 ± 2.64 *^,†,‡,§ % | 71.98 ± 2.44 *^,†,‡,§ % | 14.05 ± 2.43 *^,†,‡,§ % | 13.98 ± 1.33 *^,†,‡,§ % | > 100 nM |  | 0.01 ^†,‡,§ |  | 2.03 ^‡ | 1.33 fold | > 100 nM | 86.56 ± 0.33 nM | Ki (ERβ): 0.0486 µM; IC50 (ERα [5]): 0.84 ± 0.11 nM; Ki (ERα [5]): 0.00019 µM
CC(=O)c1cc(C(=O)O[C@@H]2/C=C/C(=O)O[C@@H](O)CCC/C=C/[C@@H]3C[C@H](O)C[C@H]32)ccc1OCCN1C=Cc2ccccc2C1 [Compound 3DPQ-7, (1R,2E,6R,10E,11aS,13S,14aR)-6,13-dihydroxy-4-oxo-4,6,7,8,9,11a,12,13,14,14a-decahydro-1H-cyclopenta[f][1]oxacyclotridecin-1-yl 3-acetyl-4-(2-(isoquinolin-2(1H)-yl)ethoxy)benzoate] | 1.74 ± 0.43 nM | 52 ± 0.68 nM | > 0.1 µM | 0.78 ± 0.52 nM | 66.61 ^‡,§ | > 100 nM |  |  |  |  |  |  | > 100 nM | 72.34 ± 0.17 nM | 0.09 ^†,‡,§ | 0.64 ± 0.13 nM | 2.14 ^†,‡ |  |  |  | MCF-7 antiproliferative potency, fold higher than Ral (MCF-7 cell lines): 1.14 fold; Cell Cycle (%) G0/G1 (MCF-7 cells; 0.1 nM): 73.25 ± 2.54 *^,†,‡,§ %; Cell Cycle (%) G2/M (MCF-7 cells; 0.1 nM): 12.69 ± 2.64 *^,†,‡,§ %; Cell Cycle (%) S (MCF-7 cells; 0.1 nM): 14.06 ± 1.58 *^,†,‡,§ %; Cell Cycle (%) G0/G1 (MCF-7 cells; 1 nM): 75.71 ± 1.43 *^,†,‡,§ %; Cell Cycle (%) G2/M (MCF-7 cells; 1 nM): 9.53 ± 3.54 *^,†,‡,§ %; Cell Cycle (%) S (MCF-7 cells; 1 nM): 14.77 ± 1.46 *^,†,‡,§ %; Ka ERβ (nM) (ERβ; [12]): 40.64 ^†,‡,§ nM; Ka ERα (nM) (ERα [5]; [12]): 0.14 ^†,‡ nM; ERα potency, fold higher than Ral (ERα [5]): 1.16 fold
CC(=O)c1cc(C(=O)O[C@@H]2/C=C/C(=O)O[C@@H](O)CCC/C=C/[C@@H]3C[C@H](O)C[C@H]32)ccc1OCCN1CCCC2CCCNC21 (stereo partly drawn) [Compound 3DPQ-8, (1R,2E,6R,10E,11aS,13S,14aR)-6,13-dihydroxy-4-oxo-4,6,7,8,9,11a,12,13,14,14a-decahydro-1H-cyclopenta[f][1]oxacyclotridecin-1-yl 3-acetyl-4-(2-(octahydro-1,8-naphthyridin-1(2H)-yl)ethoxy)benzoate] | 1.98 ± 0.32 nM | 42.56 ± 0.35 nM | > 0.1 µM | 1.06 ± 0.45 nM | 40.15 ^‡,§ | > 100 nM | 72.39 ± 1.43 *^,†,‡,§ % | 15.11 ± 2.56 *^,†,‡,§ % | 12.50 ± 1.22 *^,†,‡,§ % | 74.85 ± 2.54 *^,†,‡,§ % | 11.95 ± 2.45 *^,†,‡,§ % | 13.21 ± 2.15 *^,†,‡,§ % | > 100 nM | 72.3 ± 0.78 nM | 0.09 ^†,‡,§ | 0.81 ± 0.14 nM | 2.04 ^‡ | 1.38 fold |  |  | Ki (ERβ; [8]): 0.0406 µM; Ki (ERα [5]; [10]): 0.00018 µM
CC(=O)c1cc(C(=O)O[C@@H]2/C=C/C(=O)O[C@@H](O)CCC/C=C/[C@@H]3C[C@H](O)C[C@H]32)ccc1OCCN1CCCCC1 [Compound 3DPQ-10, (1R,2E,6R,10E,11aS,13S,14aR)-6,13-dihydroxy-4-oxo-4,6,7,8,9,11a,12,13,14,14a-decahydro-1H-cyclopenta[f][1]oxacyclotridecin-1-yl 3-acetyl-4-(2-(piperidin-1-yl)ethoxy)benzoate] | 1.55 ± 0.42 nM | 41.97 ± 0.32 nM | > 0.1 µM | 0.97 ± 0.34 nM | 42.27 ^‡,§ |  |  |  |  |  |  |  | > 100 nM |  | 0.05 ^†,‡,§ |  | 2.06 ^‡ | 1.45 fold | > 100 nM | 79.54 ± 0.76 nM | Cell Cycle (%) G0/G1 (MCF-7 cells; 0.1 nM): 71.96 ± 1.43 *^,†,‡,§ %; Cell Cycle (%) G2/M (MCF-7 cells; 0.1 nM): 16.08 ± 1.56 *^,†,‡,§ %; Cell Cycle (%) S (MCF-7 cells; 0.1 nM): 11.96 ± 2.41 *^,†,‡,§ %; Cell Cycle (%) G0/G1 (MCF-7 cells; 1 nM): 74.42 ± 2.12 *^,†,‡,§ %; Cell Cycle (%) G2/M (MCF-7 cells; 1 nM): 12.92 ± 4.32 *^,†,‡,§ %; Cell Cycle (%) S (MCF-7 cells; 1 nM): 12.67 ± 2.46 *^,†,‡,§ %; Ki (ERβ): 0.0447 µM; IC50 (ERα [5]): 0.77 ± 0.14 nM; Ki (ERα [5]): 0.00017 µM
CC(=O)c1cc(C(=O)O[C@@H]2/C=C/C(=O)O[C@@H](O)CCC/C=C/[C@@H]3C[C@H](O)C[C@H]32)ccc1OCCN1CCCC1 [Compound 3DPQ-11, (1R,2E,6R,10E,11aS,13S,14aR)-6,13-dihydroxy-4-oxo-4,6,7,8,9,11a,12,13,14,14a-decahydro-1H-cyclopenta[f][1]oxacyclotridecin-1-yl 3-acetyl-4-(2-(pyrrolidin-1-yl)ethoxy)benzoate] | 1.37 ± 0.47 nM | 67.12 ± 0.54 nM | > 0.1 µM | 0.81 ± 0.22 nM | 82.86 ^‡,§ |  |  |  |  |  |  |  | > 100 nM |  | 0.07 ^†,‡,§ |  | 2.10 ^‡ |  | > 100 nM | 76.52 ± 0.48 nM | MCF-7 antiproliferative potency, fold higher than Ral (MCF-7 cell lines): 1.10 fold; Cell Cycle (%) G0/G1 (MCF-7 cells; 0.1 nM): 72.53 ± 0.47 *^,†,‡,§ %; Cell Cycle (%) G2/M (MCF-7 cells; 0.1 nM): 14.16 ± 2.13 *^,†,‡,§ %; Cell Cycle (%) S (MCF-7 cells; 0.1 nM): 13.31 ± 1.66 *^,†,‡,§ %; Cell Cycle (%) G0/G1 (MCF-7 cells; 1 nM): 74.99 ± 2.54 *^,†,‡,§ %; Cell Cycle (%) G2/M (MCF-7 cells; 1 nM): 11.00 ± 3.43 *^,†,‡,§ %; Cell Cycle (%) S (MCF-7 cells; 1 nM): 14.02 ± 1.43 *^,†,‡,§ %; Ki (ERβ): 0.043 µM; IC50 (ERα [5]): 0.7 ± 0.33 nM; Ki (ERα [5]): 0.00016 µM; ERα potency, fold higher than Ral (ERα [5]): 1.06 fold
